Data on eleven compounds can be found in patent US10611740B2, “Aryl dihydro-2H-benzo[b][1,4]oxazine sulfonamide and related compounds for use as agonists of RORγ and the treatment of disease” (Lycera Corporation, priority 2015, dated 2020).

Usually EC50 stands for the midpoint of the concentration-response curve. A lower EC50 goes with a more potent agent.

One assay has as its target T1, RORγ-LBD (Homo sapiens, UniProt P51449).
T1 construct: made in house; host or cells: SF9 cells (baculovirus)
T1 sequence (P51449 269-508 limits assumed): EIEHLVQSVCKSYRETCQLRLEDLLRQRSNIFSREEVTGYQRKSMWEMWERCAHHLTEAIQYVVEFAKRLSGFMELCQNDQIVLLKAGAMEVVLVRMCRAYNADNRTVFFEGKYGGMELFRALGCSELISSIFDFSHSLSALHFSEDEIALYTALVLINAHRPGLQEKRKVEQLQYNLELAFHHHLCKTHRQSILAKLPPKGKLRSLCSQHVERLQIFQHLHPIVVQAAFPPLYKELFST
The experiment in a line: RORγ-Ligand Binding Domain (LBD) TR-FRET Assay.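 On TR-FRET Assay Max Response: 665/615 nm ratio relative to signal without ursolic acid or compound set at 100.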 The class given is biochemical. The method in brief: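 This TR-FRET coactivator assay pairs baculovirus-expressed His-RORγ-LBD (~3 nM final) with biotin-SRC1 LXXLL peptide at 200 nM final in pH 7.0 Tris/KCl/EDTA/DTT/BSA buffer.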

A further assay concerns the target T2, Gal4-RORγ-LBD (Homo sapiens, UniProt P51449).
T2 construct: expressed in transfected cells; host or cells: HEK-293 cells (pcDNA3.1neo plasmid)
T2 sequence (P51449 269-508 limits assumed): T1 sequence (P51449 269-508 limits assumed)
The experiment in a line: Gal4-RORγ Luciferase Reporter Assay in HEK-293T Cells. The settings on record: HEK-293 cells. It is filed as cell-based. In short, it runs like this:
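Luminescence read-out (One-Glo, 10 min RT) after overnight compound exposure at 37 °C in HEK-293 cells carrying Gal4-RORγ-LBD plus a Gal4-luciferase reporter, in the presence of 2 μM ursolic acid. Max Response is the upper plateau from a 4-parameter logistic fit, normalized to untreated signal = 100.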
(A reporter such as luciferase makes a cellular process visible.)

Where [1] appears, read: luciferase reporter, with 2 μM ursolic acid.

Each structure is given as a SMILES string.

Consider `NCC[C@H]1CN(S(=O)(=O)c2cccc(C(F)(F)F)c2)c2cc(-c3cc(F)ccc3F)ccc2O1` [Compound 27, (S)-2-(6-(2,5-difluorophenyl)-4-((3-(trifluoromethyl)phenyl)sulfonyl)-3,4-dihydro-2H-benzo[b][1,4]oxazin-2-yl)ethan-1-amine], for which, on RORγ-LBD, the EC50 is under 0.5 µM and the “TR-FRET Assay Max Response” value is recorded as “**** (The symbol “****” indicates a value greater than 200)”. Also, at Gal4-RORγ-LBD (setting [1]), the EC50 fell in the range of 0.5 to 5 µM and the “Gal4-RORγ Assay Max Response” value is on record as “* (The symbol “*” indicates a value in the range of 25 to 90)”.
For the compound `CC(C)(C[C@H]1CN(S(=O)(=O)c2cccc(C(F)(F)F)c2)c2cc(-c3ccccc3C#N)ccc2O1)C(=O)O` [Compound 32AF, (S)-3-(6-(2-cyanophenyl)-4-((3-(trifluoromethyl)phenyl)sulfonyl)-3,4-dihydro-2H-benzo[b][1,4]-oxazin-2-yl)-2,2-dimethyl-propanoic acid], on RORγ-LBD, the concentration giving a half-maximal response (EC50) was under 0.5 µM and the “TR-FRET Assay Max Response” value is “*** (The symbol “***” indicates a value in the range of greater than 150 to 200)”. At Gal4-RORγ-LBD (2 μM ursolic acid), the 50% effective concentration (EC50) lay in the range of 0.5 to 5 µM and the “Gal4-RORγ Assay Max Response” value is on record as “** (The symbol “**” indicates a value in the range of greater than 90 to 150)”.
Regarding `COc1cccc(-c2cc3c(cc2Cl)O[C@@H](CCC(=O)O)CN3S(=O)(=O)c2cccc(C(F)(F)F)c2)c1` [Compound 22C, (S)-3-(7-chloro-6-(3-methoxyphenyl)-4-((3-(trifluoromethyl)phenyl)sulfonyl)-3,4-dihydro-2H-benzo[b][1,4]-oxazin-2-yl)propanoic acid], at RORγ-LBD, the EC50 is under 0.5 µM and the “TR-FRET Assay Max Response” value is given as “**** (The symbol “****” indicates a value greater than 200)”. Besides, on Gal4-RORγ-LBD (setting [1]), the EC50 is under 0.5 µM and the “Gal4-RORγ Assay Max Response” value is given as “** (The symbol “**” indicates a value in the range of greater than 90 to 150)”.
On to `O=C(O)[C@H]1CCCN1C(=O)NCC[C@H]1CN(S(=O)(=O)c2cccc(C(F)(F)F)c2)c2cc(-c3cc(F)ccc3F)ccc2O1` [Compound 23U, ((2-((S)-6-(2,5-difluorophenyl)-4-((3-(trifluoromethyl)phenyl)-sulfonyl)-3,4-dihydro-2H-benzo[b][1,4]oxazin-2-yl)ethyl)carbamoyl)-D-proline], for which, on RORγ-LBD, the EC50 was under 0.5 µM and the “TR-FRET Assay Max Response” value is “**** (The symbol “****” indicates a value greater than 200)”. At Gal4-RORγ-LBD (setting [1]), the EC50 was under 0.5 µM and the “Gal4-RORγ Assay Max Response” value is “** (The symbol “**” indicates a value in the range of greater than 90 to 150)”.
In the case of `CC(C)(C[C@H]1CN(S(=O)(=O)c2cccc(C(F)(F)F)c2)c2cc(-c3cccc(C(F)(F)F)n3)ccc2O1)C(=O)O` [Compound 32E, (S)-2,2-dimethyl-3-(4-((3-(trifluoromethyl)phenyl)sulfonyl)-6-(6-(trifluoromethyl)pyridin-2-yl)-3,4-dihydro-2H-benzo[b][1,4]oxazin-2-yl)propanoic acid], at RORγ-LBD, the EC50 was under 0.5 µM and the “TR-FRET Assay Max Response” value was “**** (The symbol “****” indicates a value greater than 200)”. Also, at Gal4-RORγ-LBD (setting [1]), the EC50 was under 0.5 µM and the “Gal4-RORγ Assay Max Response” value is listed as “** (The symbol “**” indicates a value in the range of greater than 90 to 150)”.
As for `CC(C)(C(=O)NC[C@H]1CN(S(=O)(=O)c2cccc(C(F)(F)F)c2)c2cc(-c3cc(F)cc(F)c3Cl)ccc2O1)C(F)(F)F` [Compound 30CL, (S)-N-((6-(2-chloro-3,5-difluoro-phenyl)-4-((3-(trifluoromethyl)-phenyl)sulfonyl)-3,4-dihydro-2H-benzo[b][1,4]oxazin-2-yl)methyl)-3,3,3-trifluoro-2,2-dimethylpropanamide], on RORγ-LBD, the 50% effective concentration (EC50) fell in the range of 0.5 to 5 µM and the “TR-FRET Assay Max Response” value is reported as “** (The symbol “**” indicates a value in the range of greater than 90 to 150)”. Further, at Gal4-RORγ-LBD (2 μM ursolic acid), the EC50 fell in the range of 0.5 to 5 µM and the “Gal4-RORγ Assay Max Response” value is listed as “* (The symbol “*” indicates a value in the range of 25 to 90)”.
`O=C(NC[C@H]1CN(S(=O)(=O)c2cccc(C(F)(F)F)c2)c2cc(-c3cc(F)ccc3F)ccc2O1)C1CC1` [Compound 30Y, (S)-N-((6-(2,5-difluorophenyl)-4-((3-(trifluoromethyl)phenyl)-sulfonyl)-3,4-dihydro-2H-benzo[b][1,4]oxazin-2-yl)-methyl)cyclopropane-carboxamide]: at RORγ-LBD, the EC50 was under 0.5 µM and the “TR-FRET Assay Max Response” value is “**** (The symbol “****” indicates a value greater than 200)”. At Gal4-RORγ-LBD (setting [1]), the EC50 is under 0.5 µM and the “Gal4-RORγ Assay Max Response” value was “** (The symbol “**” indicates a value in the range of greater than 90 to 150)”.
In the case of `O=C(O)CC[C@H]1CN(S(=O)(=O)c2cccc(C(F)(F)F)c2)c2cc(-c3cc(F)ccc3Cl)ccc2O1` [Compound 2AI, (S)-3-(6-(2-chloro-5-fluoro-phenyl)-4-((3-(trifluoromethyl)-phenyl)sulfonyl)-3,4-dihydro-2H-benzo[b][1,4]oxazin-2-yl)propanoic acid], at RORγ-LBD, the concentration for a half-maximal effect (EC50) was under 0.5 µM and the “TR-FRET Assay Max Response” value is listed as “**** (The symbol “****” indicates a value greater than 200)”. Also, the “Gal4-RORγ Assay Max Response” value on Gal4-RORγ-LBD (setting [1]) is recorded as “** (The symbol “**” indicates a value in the range of greater than 90 to 150)”.
Take `CC(=O)OCC(=O)NC[C@H]1CN(S(=O)(=O)c2cccc(C(F)(F)F)c2)c2cc(-c3cc(F)ccc3F)ccc2O1` [Compound 30AY, (S)-2-(((6-(2,5-difluorophenyl)-4-((3-(trifluoromethyl)phenyl)-sulfonyl)-3,4-dihydro-2H-benzo[b][1,4]oxazin-2-yl)methyl)amino)-2-oxoethyl acetate]: at RORγ-LBD, the EC50 is under 0.5 µM and the “TR-FRET Assay Max Response” value is reported as “*** (The symbol “***” indicates a value in the range of greater than 150 to 200)”. For the same compound, at Gal4-RORγ-LBD (setting [1]), the EC50 was under 0.5 µM and the “Gal4-RORγ Assay Max Response” value is on record as “** (The symbol “**” indicates a value in the range of greater than 90 to 150)”.
As to `CN(C)c1cccc(-c2ccc3c(c2)N(S(=O)(=O)c2cccc(C(F)(F)F)c2)C[C@H](CCC(=O)O)O3)n1` [Compound 4X, (S)-3-(6-(6-(dimethylamino)-pyridin-2-yl)-4-((3-(trifluoro-methyl)phenyl)sulfonyl)-3,4-dihydro-2H-benzo[b][1,4]-oxazin-2-yl)propanoic acid], on RORγ-LBD, the EC50 was under 0.5 µM and the “TR-FRET Assay Max Response” value is “**** (The symbol “****” indicates a value greater than 200)”. Besides, at Gal4-RORγ-LBD (setting [1]), the EC50 is under 0.5 µM and the “Gal4-RORγ Assay Max Response” value was “** (The symbol “**” indicates a value in the range of greater than 90 to 150)”.
On to `CC(C)c1ccc(-c2ccc3c(c2)N(S(=O)(=O)c2cccc(C(F)(F)F)c2)C[C@H](CCC(=O)O)O3)cc1` [Compound 2Z, (S)-3-(6-(4-isopropylphenyl)-4-((3-(trifluoromethyl)phenyl)-sulfonyl)-3,4-dihydro-2H-benzo[b][1,4]oxazin-2-yl)propanoic acid], for which the results for the EC50 on RORγ-LBD and on Gal4-RORγ-LBD (setting [1]) were under 0.5 µM and over 10 µM, respectively. Further, on RORγ-LBD, the “TR-FRET Assay Max Response” value is given as “** (The symbol “**” indicates a value in the range of greater than 90 to 150)”.
